Measured values published in publication PMC10380385, “Synthesis, In Vitro, and In Vivo Investigations of Pterostilbene-Tethered Analogues as Anti-Breast Cancer Candidates” (International Journal of Molecular Sciences, 2023).
Values joined by “and” are separate entries in the source; they are usually repeats but may differ in a detail not shown here. Identical values can stand only once.

Assays:
MDA-MB-231 cells [1] = experiment: MTT anti-proliferative assay, MDA-MB-231; assay type: cell-based; details: Homo sapiens, 48 h
Description: (§1) The in vitro anti-proliferative activity of all synthesized analogues against MDA-MB-231 and MCF-7 cells was tested using the 3-(4,5-dimethylthiazol-2-yl)-[…] (MTT) method. […] Usually, Dox has been used as a positive control in many basic studies, especially drug screening assay. […] In the meantime, the cytotoxic activity of 2K–2N, PTE, and Dox against MCF-10A (human breast epithelial cell line) was examined. […] By contrast, the substitution of a saturated six-membered nitrogen heterocyclic ring on the side chain is extremely favorable for enhancing anti-BC efficacy (2L–2N vs. 1, PTE, 2A–2J). Based on the preceding analysis, analogue 2L was selected as the most promising anti-BC agent and used in the follow-up study.
(§2) The human breast cancer cell lines MDA-MB-231 and MCF-7 were purchased from the Chinese Academy of Science and cultured in Dulbecco’s modified Eagle’s medium (DMEM, Gibco, New York, NY, USA) containing 10% fetal bovine serum (FBS), 2 mM L-glutamine, 100 U/mL penicillin, and 100 μg/mL streptomycin. Then, the cells were maintained in a humidified incubator at 37 °C in the presence of 5% CO2.
(§3) The MTT assay was used to test the effect of PTEs on cell viability. The MDA-MB-231 (3 × 10^3 cells/well) and MCF-7 (4 × 10^3 cells/well) cells were seeded in a 96-well plate and cultured at 37 °C in a 5% CO2 incubator overnight. Afterwards, the medium was replaced with different concentrations of the title compounds (1, 3, 10, 30, and 100 μM). After incubation for 48 h, 10 μL of MTT solution (5 mg/mL) was added to each well and incubated for another 4 h. The optical density (OD) of the samples was measured using a microplate reader (Biotek, Burlington, VT, USA) at 570 nm. The inhibition rate (%) = [A570 (control) − A570 (compound)]/A570 (control) × 100%. The IC50 values were calculated using SPSS software version 17.0 (SPSS Inc., Chicago, IL, USA).

MCF-7 cells [2] = experiment: MTT anti-proliferative assay, MCF-7; assay type: cell-based; details: Homo sapiens, MCF7, 48 h
Description: as §1, §2, §3

[3] = test system: MCF-10A (human breast epithelial cell line); experiment: Cytotoxic activity against MCF-10A; assay type: cell-based; details: cytotoxicity, normal breast epithelial cells
Description: as §1

MDA-MB-231 xenograft = experiment: MDA-MB-231-derived xenograft mouse model; assay type: in vivo; details: for tumor growth inhibition (TGI): intraperitoneal, every other day, 10 treatments, by tumor weight
Description: BALB/c nude mice (female, 6–7 weeks) were purchased from Changsheng Biotechnology Co., Ltd. (Liaoning, China). MDA-MB-231 cells (5 × 10^6 cells/mouse) were injected subcutaneously into the right back of the nude mice. When the tumor volume reached approximately 55 mm^3, the female mice were randomly divided into two treatment groups (25, 50 mg/kg) and a vehicle group (equal volume of normal saline) with five mice in each group. Throughout the experiment, 2L and saline were intraperitoneally injected every other day for 10 treatments. At the same time, the changes in tumor volume and body weight of the nude mice were tracked and recorded. The tumor volumes were assessed using the formula: V (mm^3) = (length × width^2)/2. At the end of the experimental period, tumor tissues were harvested, weighed, and collected. The TGI rate was calculated by the average tumor weight of the 2L-treated and control groups.

MDA-MB-231 cells [4] = experiment: Intracellular ROS, DCFH-DA, MDA-MB-231; assay type: cell-based, human; details: MDA-MB-231, 2L 24 h, vs control
Description: (§4) The Reactive Oxygen Species Assay Kit was used to measure intracellular ROS levels. MDA-MB-231 and MCF-7 cells (6 × 10^4 cells/well) were seeded onto 24-well plates and treated with 2L (0, 10 μM) for 24 h. Subsequently, the cells were washed with PBS and stained with dichlorodihydrofluorescein diacetate (DCFH-DA, 10 μM) at 37 °C for 20 min in the dark. Following three washes with serum-free DMEM, the fluorescence alteration was photographed using a fluorescence microscope.
(§5) MDA-MB-231 and MCF-7 cells were plated in 6-well plates with a density of 3 × 10^5 cells/well. After exposure to 2L for 24 h, the cells were incubated with 10 μM DCFH-DA at 37 °C for 20 min in the dark. Later, the cells were slightly washed three times with serum-free DMEM and centrifuged (1000 rpm, 5 min). The collected cells were resuspended in PBS and loaded into a flow cytometer.

MDA-MB-231 cells [5] = experiment: Mitochondrial membrane potential JC-1 assay, MDA-MB-231; assay type: cell-based, human; details: MDA-MB-231, 24 h, flow cytometry
Description: (§6) The MMP was assayed using a JC-1 assay kit (Beyotime, Shanghai, China) according to the manufacturer’s instructions. In brief, MDA-MB-231 and MCF-7 cells were plated in 24-well plates at a density of 6 × 10^4 cells per well. After intervention with 2L (0, 10 μM) for 24 h, the cells were washed once with PBS. Cell culture solution (0.5 mL) and JC-1 working solution (0.5 mL) were successively added, mixed well, and incubated at 37 °C for 20 min in the dark. After washing twice with 1 × JC-1 staining buffer, the cells were resuspended in fresh culture medium. The graphical results were observed under a fluorescence microscope.
(§7) MDA-MB-231 and MCF-7 cells were incubated in 6-well plates at a density of 3 × 10^5 cells per dish and exposed to 2L for 24 h. Cell culture media (1 mL) and JC-1 staining working solution (1 mL) were added, thoroughly mixed, and incubated at 37 °C for 20 min. After washing twice with 1 × JC-1 staining buffer, the cells were collected and resuspended in 500 μL JC-1 staining buffer and then instantly analyzed using a flow cytometry.

MCF-7 cells [6] = experiment: Intracellular ROS, DCFH-DA, MCF-7; assay type: cell-based, human; details: MCF-7, 2L 24 h, vs control
Description: as §4, §5

[7] = test system: apoptosis-related proteins in MCF-7 cells; experiment: Western blot of apoptosis-related proteins, MCF-7; assay type: cell-based, human; details: MCF-7, 2L 1.1, 3.3, 10 μM, 24 h
Description: (§8) MDA-MB-231 and MCF-7 cells were cultured in a 6-well plate with the density of 3 × 10^5 cells/well and treated with different concentrations of 2L (0, 1.1, 3.3, 10 μM) for 24 h. The cells were lysed in radioimmunoprecipitation assay (RIPA) buffer (Beyotime, Shanghai, China) containing 1% protease inhibitor cocktail and 1 mM phenylmethylsulfonyl fluoride (PMSF, Sigma-Aldrich, St. Louis, MO, USA). After centrifugation, the supernatant was collected and quantified by BCA assay (Beyotime). Lysates were mixed with the loading buffer (5 ×) and denatured by boiling for 10 min. Then, the equivalent samples were separated via 10–15% sodium dodecyl–sulfate polyacrylamide gel electrophoresis (SDS-PAGE), transferred to 0.45 µm immunoblot poly(vinylidene fluoride) (PVDF) membranes (Merck Millipore, Darmstadt, Germany) at 4 °C, and blocked in 5% skimmed milk in TBST for 1 h at room temperature. The membranes were incubated overnight at 4 °C with specific primary antibodies. After washing three times with TBST, the PVDF membranes were incubated with horseradish peroxidase (HRP)-conjugated secondary antibodies at rt for 1 h. Lastly, the resulting bands were visualized by a Bio-Rad ChemiDoc imaging system ([…]) using enhanced chemiluminescence reagents (Millipore, Billerica, MA, USA). The details of the corresponding primary antibodies were as follows: Bax (2772; Cell Signaling Technology), Bcl-2 (3498; Cell Signaling Technology), cleaved caspase-3 (9661; Cell Signaling Technology), cleaved caspase-9 (9505; Cell Signaling Technology), and PARP (9542; Cell Signaling Technology). The HRP-secondary antibodies were also obtained from Cell Signaling Technology (Boston, MA, USA).

[8] = test system: apoptosis-related proteins in MDA-MB-231 cells; experiment: Western blot of apoptosis-related proteins, MDA-MB-231; assay type: cell-based, human; details: MDA-MB-231, 2L 1.1, 3.3, 10 μM, 24 h
Description: as §8

MCF-7 cells [9] = experiment: Mitochondrial membrane potential JC-1 assay, MCF-7; assay type: cell-based, human; details: MCF-7, 24 h, flow cytometry
Description: as §6, §7

MCF-7 cells [10] = experiment: DNA content / cell cycle of PI-stained cells by flow cytometry, MCF-7; assay type: cell-based, human; details: MCF-7, 10.0 μM
Description: (§9) It is commonly acknowledged that […] DNA fragmentation is a crucial hallmark of cell apoptosis. Next, we assessed the influence of 2L on the DNA content of PI-stained BC cells using flow cytometry. […] In turn, treatment with 2L led to an apparent enhancement of the number of MCF-7 cells, from 51.7% to 63.0%. […] An augmentation of DNA distribution in the SubG1 peak was representative of the occurrence of apoptosis in 2L-exposed groups, which further confirmed that 2L could induce the apoptosis of BC cells. In addition, the quantitative analysis of DNA distribution for the subG1, G0/G1, S, and G2/M phases appeared to show similar alterations (Figure 4B,D).

MDA-MB-231 cells [11] = experiment: Annexin V-FITC/PI apoptosis flow cytometry, MDA-MB-231; assay type: cell-based, human
Description: (§10) MDA-MB-231 and MCF-7 cells (3 × 10^5 cells/well) were seeded into 6-well plates. After that, the cells were treated with 2L (0, 10 μM) for 24 h. Cells were harvested, washed repeatedly with cold phosphate-buffered saline (PBS), and resuspended in 195 μL of binding buffer. Then, 4 μL annexin V-FITC reagent (Beyotime) and 8 μL propidium iodide (PI, Beyotime) were added to the samples and gently mixed. After incubation for 15 min in the dark at room temperature, the stained cells were immediately detected by a FACScan flow cytometer (BD Biosciences, San Jose, CA, USA) and analyzed with the annexin V-FITC/PI apoptosis method.

MDA-MB-231 cells [12] = experiment: DNA content / cell cycle of PI-stained cells by flow cytometry, MDA-MB-231; assay type: cell-based, human; details: MDA-MB-231, 10.0 μM
Description: as §9

MCF-7 cells [13] = experiment: Annexin V-FITC/PI apoptosis flow cytometry, MCF-7; assay type: cell-based, human
Description: as §10

SMILES: COc1cc(/C=C/c2ccc(OCCCN3CCOCC3)cc2)cc(OC)c1 [Compound 2M, (E)-4-(3-(4-(3,5-dimethoxystyryl)phenoxy)propyl)morpholine]
- IC50 (MDA-MB-231 cells [1]): 49.3 ± 2.48 µM
- IC50 (MCF-7 cells [2]): 42 ± 0.79 µM
- IC50 [3]: 70.39 ± 0.43 µM

SMILES: COc1cc(/C=C/c2ccc(OCCCn3ccnc3)cc2)cc(OC)c1 [Compound 2K, (E)-1-(3-(4-(3,5-dimethoxystyryl)phenoxy)propyl)-1H-imidazole]
- IC50 (MDA-MB-231 cells [1]): 18.7 ± 0.71 µM
- IC50 (MCF-7 cells [2]): 21 ± 0.56 µM
- IC50 [3]: 49 ± 1.31 µM

SMILES: COc1cc(/C=C/c2ccc(O)cc2)cc(OC)c1 [PTE, 3,5-dimethoxy-4′-hydroxy-trans-stilbene, reference compound]
- IC50 (MDA-MB-231 cells [1]): 63.59 ± 0.4 µM
- IC50 (MCF-7 cells [2]): 44.3 ± 0.48 µM
- IC50 [3]: > 100 µM

SMILES: COc1cc(/C=C/c2ccc(OCCCN3CCN(C)CC3)cc2)cc(OC)c1 [Compound 2N, (E)-1-(3-(4-(3,5-dimethoxystyryl)phenoxy)propyl)-4-methylpiperazine]
- IC50 (MDA-MB-231 cells [1]): 17.7 ± 0.81 µM
- IC50 (MCF-7 cells [2]): 18.1 ± 0.55 µM
- IC50 [3]: 37.3 ± 0.96 µM

SMILES: COc1cc(/C=C/c2ccc(OCCCN3CCCCC3)cc2)cc(OC)c1 [Compound 2L, (E)-1-(3-(4-(3,5-dimethoxystyryl)phenoxy)propyl)piperidine]
- tumor growth inhibition (TGI) (MDA-MB-231 xenograft; 25 mg/kg): 42.0%
- tumor growth inhibition (TGI) (MDA-MB-231 xenograft; 50 mg/kg): 69.9%
- toxicity in nude mice (body weight fluctuation) (MDA-MB-231 xenograft; 25 and 50 mg/kg, whole study): no obvious toxicity
- level of Bcl-2 protein in tumor tissues (MDA-MB-231 xenograft; Western blot, vs control group): decreased
- protein expression of Bax in tumor tissues (MDA-MB-231 xenograft; Western blot, vs control group): noticeably increased
- protein expression of cleaved PARP in tumor tissues (MDA-MB-231 xenograft; Western blot, vs control group): noticeably increased
- mean ROS-associated fluorescence intensity (MDA-MB-231 cells [4]): greatly increased
- ΔΨm level after 2L (MDA-MB-231 cells [5]): 83.9%
- mean ROS-associated fluorescence intensity (MCF-7 cells [6]): greatly increased
- IC50 (MDA-MB-231 cells [1]): 10.4 ± 0.4 µM
- expression of Bcl-2 [7]: markedly downregulated
- level of Bax [7]: upregulated
- protein expression of cleaved caspase-3 [7]: increase
- protein expression of cleaved caspase-9 [7]: increase
- protein level of cleaved PARP [7]: effectively elevate
- expression of Bcl-2 [8]: markedly downregulated
- level of Bax [8]: upregulated
- protein expression of cleaved caspase-3 [8]: increase
- protein expression of cleaved caspase-9 [8]: increase
- protein level of cleaved PARP [8]: effectively elevate
- ΔΨm level after 2L (MCF-7 cells [9]): 85.0%
- IC50 (MCF-7 cells [2]): 11.7 ± 0.55 µM
- IC50 [3]: 68.9 ± 0.93 µM
- percentage of cells in subG1 (MCF-7 cells [10]): 7.83%
- proportion of cells in G0/G1 phase (MCF-7 cells [10]): 63.0%
- apoptosis ratio with NAC (MDA-MB-231 cells [11]; MDA-MB-231, 2L 10 μM + 5 mM NAC): 8.8%
- apoptosis ratio with Z-VAD-FMK (MDA-MB-231 cells [11]; MDA-MB-231, 2L 10 μM + Z-VAD-FMK 20 μM): 6.2%
- apoptotic percentage (early and late) (MDA-MB-231 cells [11]; MDA-MB-231, 2L 10 μM, 24 h): 12.7% and 16.1% and 13.1%
- percentage of cells in subG1 (MDA-MB-231 cells [12]): 7.99%
- proportion of cells in G0/G1 phase (MDA-MB-231 cells [12]): 61.7%
- apoptosis ratio with NAC (MCF-7 cells [13]; MCF-7, 2L 10 μM + 5 mM NAC): 6.7%
- apoptosis ratio with Z-VAD-FMK (MCF-7 cells [13]; MCF-7, 2L 10 μM + Z-VAD-FMK 20 μM): 6.5%
- apoptotic percentage (early and late) (MCF-7 cells [13]; MCF-7, 2L 10 μM, 24 h): 14.0% and 14.5% and 12.2%

SMILES: COc1cccc2c1C(=O)c1c(O)c3c(c(O)c1C2=O)C[C@@](O)(C(=O)CO)C[C@@H]3O[C@H]1C[C@H](N)[C@H](O)[C@H](C)O1 [Dox, Doxorubicin, reference compound]
- IC50 (MDA-MB-231 cells [1]): 2.3 ± 0.32 µM
- IC50 (MCF-7 cells [2]): 3.57 ± 0.41 µM
- IC50 [3]: 2.27 ± 0.19 µM
